# Experimental data taken from ChEMBL document CHEMBL1949547, “Computer-assisted rational design, synthesis, and bioassay of non-steroidal anti-inflammatory agents” (2012).
# Key:
# Type in all cases: functional
# Details in all cases: route intraperitoneal
# Rattus norvegicus [1] = test: Antiinflammatory activity in Wister albino rat assessed as inhibition of carrageenan-induced paw edema at 50 mg/kg, ip administered 1 hr before carrageenan challenge measured after 24 hrs by plethysmometer relative to control
# Rattus norvegicus [2] = test: Antiinflammatory activity in Wister albino rat assessed as inhibition of carrageenan-induced paw edema at 50 mg/kg, ip administered 1 hr before carrageenan challenge measured after 1 hr by plethysmometer relative to control
# Rattus norvegicus [3] = test: Antiinflammatory activity in Wister albino rat assessed as inhibition of carrageenan-induced paw edema at 50 mg/kg, ip administered 1 hr before carrageenan challenge measured after 3 hrs by plethysmometer relative to control
# Rattus norvegicus [4] = test: Antiinflammatory activity in Wister albino rat assessed as inhibition of carrageenan-induced paw edema at 50 mg/kg, ip administered 1 hr before carrageenan challenge measured after 4 hrs by plethysmometer relative to indomethacin
# Rattus norvegicus [5] = test: Antiinflammatory activity in Wister albino rat assessed as inhibition of carrageenan-induced paw edema at 50 mg/kg, ip administered 1 hr before carrageenan challenge measured after 4 hrs by plethysmometer relative to control
# Rattus norvegicus [6] = test: Antiinflammatory activity in Wister albino rat assessed as inhibition of carrageenan-induced paw edema at 50 mg/kg, ip administered 1 hr before carrageenan challenge measured after 2 hrs by plethysmometer relative to control
# Rattus norvegicus [7] = test: Antiinflammatory activity in Wister albino rat assessed as inhibition of carrageenan-induced paw edema at 10 mg/kg, ip administered 1 hr before carrageenan challenge measured after 4 hrs by plethysmometer relative to control
# Rattus norvegicus [8] = test: Antiinflammatory activity in Wister albino rat assessed as inhibition of carrageenan-induced paw edema at 10 mg/kg, ip administered 1 hr before carrageenan challenge measured after 3 hrs by plethysmometer relative to control
# Rattus norvegicus [9] = test: Antiinflammatory activity in Wister albino rat assessed as inhibition of carrageenan-induced paw edema at 10 mg/kg, ip administered 1 hr before carrageenan challenge measured after 2 hrs by plethysmometer relative to control
# Rattus norvegicus [10] = test: Antiinflammatory activity in Wister albino rat assessed as inhibition of carrageenan-induced paw edema at 10 mg/kg, ip administered 1 hr before carrageenan challenge measured after 1 hr by plethysmometer relative to control
# Rattus norvegicus [11] = test: Antiinflammatory activity in Wister albino rat assessed as inhibition of carrageenan-induced paw edema at 10 mg/kg, ip administered 1 hr before carrageenan challenge measured after 24 hrs by plethysmometer relative to control
SMILES,inhibition in vivo at 50 mg/kg (Rattus norvegicus [1]) [%],inhibition in vivo at 50 mg/kg (Rattus norvegicus [2]) [%],inhibition in vivo at 50 mg/kg (Rattus norvegicus [3]) [%],inhibition in vivo at 50 mg/kg (Rattus norvegicus [4]) [%],inhibition in vivo at 50 mg/kg (Rattus norvegicus [5]) [%],inhibition in vivo at 50 mg/kg (Rattus norvegicus [6]) [%],other results
CCOC(=O)c1c(-c2ccc(Cl)cc2)cc(-c2ccccc2)nc1N1CCCCC1,36.4,59.3,24,103,70.1,29.1,–
CCOC(=O)c1c(-c2ccc(Cl)c(Cl)c2)cc(-c2ccccc2)nc1N1CCCCC1,48.9,53.5,46.3,95.1,64.7,67.9,–
CCOC(=O)c1c(-c2ccc(Cl)cc2)cc(-c2ccccc2)nc1N1CCOCC1,61.7,59.5,69.8,120,81.3,54.5,–
CCOC(=O)c1c(-c2ccc(Cl)c(Cl)c2)cc(-c2ccccc2)nc1N1CCOCC1,61.6,63.5,67.7,96.6,65.7,74.3,–
CCOC(=O)c1c(-c2ccc(Cl)cc2)cc(-c2ccccc2)nc1N1CCN(C)CC1,53.2,65.8,67.8,55.6,37.8,39.6,–
CCOC(=O)c1c(-c2ccc(Cl)cc2)cc(-c2ccccc2)nc1Nc1ccccc1,46.5,62.3,73.7,123,83.8,73.9,–
CCOC(=O)c1c(-c2ccc(Cl)cc2)cc(-c2ccccc2)nc1Nc1ccc(C)cc1,62.7,69.5,82.4,90.9,61.8,32.6,–
CCOC(=O)c1c(-c2ccc(Cl)c(Cl)c2)cc(-c2ccccc2)nc1Nc1ccc(C)cc1,40.8,59,59.3,87.9,59.8,62.1,–
CCOC(=O)c1c(-c2ccc(Cl)cc2)cc(-c2ccccc2)nc1Nc1ccc(OC)cc1,39.6,33.3,68.8,57.2,38.9,61.1,–
CCOC(=O)c1c(-c2ccc(Cl)cc2)cc(-c2ccccc2)nc1Nc1ccc(Cl)cc1,32.9,44.6,31.2,95.9,65.2,40.6,–
CCOC(=O)c1c(-c2ccc(Cl)c(Cl)c2)cc(-c2ccccc2)nc1Nc1ccc(Cl)cc1,52.7,46.2,62.2,91.8,62.4,61.9,–
CCOC(=O)c1c(-c2ccc(F)cc2)cc(-c2ccccc2)nc1Nc1ccc(Cl)cc1,–,–,–,–,78.4,–,–
CCOC(=O)c1c(-c2ccc(C)cc2)cc(-c2ccccc2)nc1Nc1ccc(OC)cc1,–,–,–,–,89.4,–,–
CCOC(=O)c1c(-c2ccc(F)cc2)cc(-c2ccccc2)nc1N1CCCCC1,–,–,–,–,76,–,–
CCOC(=O)c1c(-c2ccc(C)cc2)cc(-c2ccccc2)nc1N1CCCCC1,–,–,–,–,78,–,–
CCOC(=O)c1c(-c2ccc(C)cc2)cc(-c2ccccc2)nc1N1CCOCC1,–,–,–,–,73,–,–
CCOC(=O)c1c(-c2ccc(C)cc2)cc(-c2ccccc2)nc1Nc1ccc(Cl)cc1,–,–,–,–,79.4,–,–
CCOC(=O)c1c(-c2ccc(F)cc2)cc(-c2ccccc2)nc1Nc1ccccc1,–,–,–,–,76,–,–
CCOC(=O)c1c(-c2ccc(F)cc2)cc(-c2ccccc2)nc1N1CCOCC1,–,–,–,–,72.7,–,–
N#Cc1c(-c2ccc(N3CCCCC3)cc2)c(C#N)c2n(Cc3ccccc3)c([S-])n[n+]2c1N,–,–,–,–,67.4,–,–
N#Cc1c(-c2ccc(N3CCOCC3)cc2)c(C#N)c2n(Cc3ccccc3)c([S-])n[n+]2c1N,–,–,–,–,39.3,–,–
CN1CCN(c2ccc(-c3c(C#N)c(N)[n+]4nc([S-])n(C)c4c3C#N)cc2)CC1,–,–,–,–,36.6,–,–
C=CCn1c([S-])n[n+]2c(N)c(C#N)c(-c3ccc(N4CCOCC4)cc3)c(C#N)c12,–,–,–,–,60.6,–,–
Cn1c([S-])n[n+]2c(N)c(C#N)c(-c3ccc(N4CCOCC4)cc3)c(C#N)c12,–,–,–,–,45.4,–,–
Cn1c([S-])n[n+]2c(N)c(C#N)c(-c3ccc(N4CCCCC4)cc3)c(C#N)c12,–,–,–,–,51.1,–,–
C=CCn1c([S-])n[n+]2c(N)c(C#N)c(-c3ccc(N4CCCCC4)cc3)c(C#N)c12,–,–,–,–,68.5,–,–
COc1ccc2c(c1)c(CC(=O)O)c(C)n2C(=O)c1ccc(Cl)cc1 [INDOMETHACIN],–,–,–,100,–,–,inhibition in vivo at 10 mg/kg (Rattus norvegicus [7]): 68%; inhibition in vivo at 10 mg/kg (Rattus norvegicus [8]): 64.8%; inhibition in vivo at 10 mg/kg (Rattus norvegicus [9]): 59.9%; inhibition in vivo at 10 mg/kg (Rattus norvegicus [10]): 62.8%; inhibition in vivo at 10 mg/kg (Rattus norvegicus [11]): 76.9%
